According to patent US20170275287A1, “NOVEL N2, N4, N7, 6-TETRASUBSTITUTED PTERIDINE-2,4,7-TRIAMINE AND 2, 4, 6, 7-TETRASUBSTITUTED PTERIDINE COMPOUNDS AND METHODS OF SYNTHESIS AND USE THEREOF” (Janus Biotherapeutics, Inc., priority 2014, published 2017):

Legend:
[1] = Protein binding, human plasma (CEREP); format: in vitro ADME; conditions: read-out: Protein Binding, Human Plasma, % bound (converted)
Method: (§1) Preliminary screening measures were conducted by CEREP. All values fall within acceptable limits (Table 5). Solubility assays where performed by CEREP, Seattle, Wash., according to Lipinski, C. A. et al., 1997, Adv. Drug Del. Rev., 46:3-26. Protein binding assays where performed by CEREP, Seattle, Wash., according to Banker, M. J. et al., 2003, J. Pharm. Sci., 92:967-974. Permeability assays where performed by CEREP, Seattle, Wash. according to Hildalgo, I. J., 1998, Gastroenterology, 96:736-749. Metabolic stability assays where performed by CEREP, Seattle, Wash., according to Obach, R. S. et al., 1997, J. Pharmacol. Exp. Ther., 283:46-58. P-glycoprotein inhibition assays where performed by CEREP, Seattle, Wash., according to Polli, J. W. et al., 2001, J. Pharm. Exp. Ther., 299:620-628. Cell viability assays where performed by CEREP, Seattle, Wash., according to Mosmann, T., 1983, J. Immunol. Met. 65:55-62. hERG automated patch clamp assays where performed by CEREP, Seattle, Wash., according to Mathes, C., 2006, Expert Opin. Ther. Targets, 10:230-241.

[2] = A-B permeability, CaCo-2 cells (CEREP); format: in vitro ADME; conditions: human, pH 6.5/7.4
Method: as §1

P-glycoprotein = target: T1, P-glycoprotein (Homo sapiens, UniProt P08183); experiment: P-glycoprotein inhibition (CEREP); format: in vitro ADME
T1 construct: CEREP (contract laboratory)
Method: as §1

[3] = Metabolic stability, human liver microsomes (CEREP); format: in vitro ADME
Method: as §1

CYP1A2 = target: T2, CYP1A2 (Homo sapiens, UniProt P05177); experiment: Cytochrome p450 inhibition (CEREP); format: in vitro ADME; conditions: 10 μM
T2 construct: CEREP (contract laboratory)
Method: (§2) JB6121 was also tested for CYP inhibition, see Table 6 below. Assays where performed by CEREP, Seattle, Wash., according to Atkinson, A et al., 2005, Drug Metab. Dispos. 33:1637-1647.

CYP2C8 = target: T3, CYP2C8 (Homo sapiens, UniProt P10632); experiment: Cytochrome p450 inhibition (CEREP); format: in vitro ADME; conditions: 10 μM
T3 construct: CEREP (contract laboratory)
Method: as §2

CYP3A4 = target: T4, CYP3A4 (Homo sapiens, UniProt P08684); experiment: Cytochrome p450 inhibition (CEREP); format: in vitro ADME; conditions: 10 μM
T4 construct: CEREP (contract laboratory)
Method: as §2

[4] = system: M (non-selective) Muscarinic Receptor; experiment: Receptor cross-reactivity binding panel (CEREP)
From the text: The receptor cross-reactivity profile is composed of 71 binding and 27 enzyme assays. The binding assay panel is broadly defined with roughly an equal number of selective, central and peripheral therapeutically relevant targets. The enzyme assay panel includes the most representative targets from diverse enzyme families with a particular focus on phosphatases and specific enzymes involved in cell cycle regulation. Assays where performed by CEREP, Seattle, Wash., with protocols similar to Cordeaux, Y. et al., 2004 Brit. J. Pharmacol., 143:705-714. JB6121 was tested for receptor cross reactivity at 10 μM for approximately 100 receptors and enzymes. Any % inhibition greater than 50% (IC50<10 μM) is highlighted below in Table 7.

[5] = 7-day non-GLP tox study, once daily oral gavage; format: in vivo, rats; conditions: for no-observed-effect level (NOEL): rats, 7 days oral
Method: A 7-day non-GLP tox study was performed in rats. Dosing was once daily by oral gavage. There were four dose groups; 0, 10, 30 and 100 mg/kg. The following parameters and end points were evaluated in this study: clinical signs, body weights, body weight changes, food consumption, clinical pathology parameters (hematology, coagulation, clinical chemistry, and urinalysis), toxicokinetic parameters, gross necropsy findings, organ weights, and histopathologic examinations.

T4 sequence (P08684 whole entry): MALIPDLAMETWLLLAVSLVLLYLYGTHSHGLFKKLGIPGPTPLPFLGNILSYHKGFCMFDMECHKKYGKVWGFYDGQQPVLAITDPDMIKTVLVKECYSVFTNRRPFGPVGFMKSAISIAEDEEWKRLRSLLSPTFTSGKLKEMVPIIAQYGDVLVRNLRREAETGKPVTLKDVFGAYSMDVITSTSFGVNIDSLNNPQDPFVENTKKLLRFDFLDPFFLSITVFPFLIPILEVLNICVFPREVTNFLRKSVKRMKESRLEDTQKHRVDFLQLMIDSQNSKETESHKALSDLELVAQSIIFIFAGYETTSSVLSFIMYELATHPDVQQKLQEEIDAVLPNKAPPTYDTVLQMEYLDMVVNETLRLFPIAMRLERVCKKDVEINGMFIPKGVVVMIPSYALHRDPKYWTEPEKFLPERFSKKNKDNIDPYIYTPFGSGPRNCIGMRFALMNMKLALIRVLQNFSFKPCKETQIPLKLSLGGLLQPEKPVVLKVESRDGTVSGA
T3 sequence (P10632 whole entry): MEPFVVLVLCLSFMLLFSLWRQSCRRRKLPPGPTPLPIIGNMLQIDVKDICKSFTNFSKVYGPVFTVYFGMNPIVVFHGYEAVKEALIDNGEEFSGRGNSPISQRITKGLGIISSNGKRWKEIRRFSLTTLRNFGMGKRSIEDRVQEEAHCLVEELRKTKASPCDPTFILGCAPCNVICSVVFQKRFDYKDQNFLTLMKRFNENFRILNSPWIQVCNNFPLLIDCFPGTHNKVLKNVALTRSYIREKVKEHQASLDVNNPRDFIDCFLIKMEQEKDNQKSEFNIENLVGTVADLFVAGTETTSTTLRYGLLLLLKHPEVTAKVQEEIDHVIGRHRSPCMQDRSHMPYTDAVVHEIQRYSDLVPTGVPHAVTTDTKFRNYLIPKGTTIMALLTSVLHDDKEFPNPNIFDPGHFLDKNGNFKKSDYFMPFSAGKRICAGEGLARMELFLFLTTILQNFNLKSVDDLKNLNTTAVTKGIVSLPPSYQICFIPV
T2 sequence (P05177 whole entry): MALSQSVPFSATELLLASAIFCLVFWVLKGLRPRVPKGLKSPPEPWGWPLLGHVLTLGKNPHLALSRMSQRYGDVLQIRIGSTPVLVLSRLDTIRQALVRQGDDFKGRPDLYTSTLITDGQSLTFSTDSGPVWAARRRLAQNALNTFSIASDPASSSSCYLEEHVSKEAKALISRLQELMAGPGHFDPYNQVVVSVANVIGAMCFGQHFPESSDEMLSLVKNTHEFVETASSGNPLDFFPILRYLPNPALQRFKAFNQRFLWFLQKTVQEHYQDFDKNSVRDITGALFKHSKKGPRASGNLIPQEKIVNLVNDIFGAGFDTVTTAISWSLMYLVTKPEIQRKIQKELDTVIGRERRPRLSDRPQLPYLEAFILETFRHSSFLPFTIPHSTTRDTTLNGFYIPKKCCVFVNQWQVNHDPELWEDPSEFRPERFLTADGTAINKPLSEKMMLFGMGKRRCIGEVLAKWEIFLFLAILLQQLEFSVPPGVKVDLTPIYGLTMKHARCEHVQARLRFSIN
T1 sequence (P08183 whole entry): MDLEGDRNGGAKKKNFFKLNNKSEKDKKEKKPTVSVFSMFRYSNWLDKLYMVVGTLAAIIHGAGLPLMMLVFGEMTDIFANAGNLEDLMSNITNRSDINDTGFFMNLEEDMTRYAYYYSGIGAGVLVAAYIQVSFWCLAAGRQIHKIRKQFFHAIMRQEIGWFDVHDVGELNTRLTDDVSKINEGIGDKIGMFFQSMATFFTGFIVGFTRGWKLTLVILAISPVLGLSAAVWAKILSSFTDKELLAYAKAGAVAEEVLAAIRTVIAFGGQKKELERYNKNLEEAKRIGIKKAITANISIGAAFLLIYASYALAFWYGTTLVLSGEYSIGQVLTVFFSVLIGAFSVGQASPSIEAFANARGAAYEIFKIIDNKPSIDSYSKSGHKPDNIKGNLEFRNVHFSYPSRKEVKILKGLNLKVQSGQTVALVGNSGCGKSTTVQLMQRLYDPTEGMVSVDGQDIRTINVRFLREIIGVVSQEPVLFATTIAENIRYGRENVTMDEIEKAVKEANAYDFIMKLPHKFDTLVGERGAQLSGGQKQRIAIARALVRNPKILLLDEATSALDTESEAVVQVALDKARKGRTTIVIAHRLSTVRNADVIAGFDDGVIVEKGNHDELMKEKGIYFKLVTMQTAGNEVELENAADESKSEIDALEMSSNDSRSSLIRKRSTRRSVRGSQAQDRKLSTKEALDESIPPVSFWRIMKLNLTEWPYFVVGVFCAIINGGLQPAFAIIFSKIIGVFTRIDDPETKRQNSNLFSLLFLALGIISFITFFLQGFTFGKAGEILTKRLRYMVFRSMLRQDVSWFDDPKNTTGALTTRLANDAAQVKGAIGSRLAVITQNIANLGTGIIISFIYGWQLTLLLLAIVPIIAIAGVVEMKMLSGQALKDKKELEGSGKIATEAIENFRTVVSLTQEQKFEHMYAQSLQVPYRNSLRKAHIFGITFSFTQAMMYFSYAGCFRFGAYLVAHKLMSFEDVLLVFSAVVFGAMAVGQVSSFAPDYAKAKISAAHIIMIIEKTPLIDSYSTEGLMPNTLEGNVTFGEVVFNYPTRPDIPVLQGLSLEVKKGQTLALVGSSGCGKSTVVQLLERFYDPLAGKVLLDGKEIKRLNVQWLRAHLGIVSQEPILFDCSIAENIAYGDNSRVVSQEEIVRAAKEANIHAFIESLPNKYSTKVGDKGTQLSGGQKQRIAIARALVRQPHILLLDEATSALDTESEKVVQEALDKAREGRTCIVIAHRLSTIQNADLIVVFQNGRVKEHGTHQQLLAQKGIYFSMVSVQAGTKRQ

Compound `CN1CCN(c2nc(NCCN3CCOCC3)c3nc(Cl)c(NCCN4CCOCC4)nc3n2)CC1` [JB6121, 6-chloro-2-(4-methylpiperazin-1-yl)-N^4,N^7-bis(2-morpholinoethyl)pteridine-4,7-diamine] has a fraction unbound [1] of 0.13, a Papp A→B [2] of 1.2 ×10⁻⁶ cm/s and an inhibition at 100 µM (P-glycoprotein) of 1%. For the same compound, the “Metabolic Stability, Human Liver Microsomes at 60 min. % remaining” value [3] was 75%, the “CYP1A2 Mean % Control” value (CYP1A2) was 97.0% and the “CYP2C8 Mean % Control” value (CYP2C8) was 87.7%. The “CYP3A4, BFC substrate Mean % Control” value (CYP3A4; BFC substrate) was 94.1%, the “CYP3A4, BzRes substrate Mean % Control” value (CYP3A4; BzRes substrate) was 104.8% and the “% Ligand Inhibition, M (non-selective) Muscarinic Receptor” value ([4]; 10 μM) was 63.1%. The IC50 ([4]; most-likely, estimated from 10 μM result) was > 5 µM, the NOAEL at 7 days ([5]; both sexes, rat, in vivo, po) was 100 mg/kg/day and the “hematopoiesis (spleen)” value ([5]; rat, in vivo, 30 mg/kg/day) was “increased incidence of hematopoiesis”. For the same compound, the “increase of mean spleen weights” value ([5]; rat, in vivo, 30 mg/kg/day) was “at least 10%”, the “hematopoiesis in the liver” value ([5]; rat, in vivo, 100 mg/kg/day) was “slight increase in hematopoiesis” and the “no-observed-effect level (NOEL)” value ([5]; females) was 100 mg/kg/day. For the same compound, the “no-observed-effect level (NOEL)” value ([5]; males) was 10 mg/kg/day.
